Measurements published in patent publication US4614807A, “6,7-dihalomelatonins” (Eli Lilly and Company, priority 1984, dated 1986).
Where two headings read alike, the source gives them in different places.

Experiments:
ovulation [1] = test: inhibition of ovulation, test compound given orally on the day of proestrus; absence of ova in oviduct; type: in vivo; conditions: oral, rat
Experimental: The compounds of the invention are ovulation inhibitors, with a longer duration of action than the monochloromelatonins. The degree of ovulation inhibitory activity was determined according to the following protocol.
Adult female rats with regular estrus cycles of four days each are employed. The estrus cycle consists of 2 days of diestrus followed by a day of proestrus and then a day of estrus. […] On the afternoon of proestrus, luteinizing hormone (LH) is released into the blood by the pituitary gland. The LH travels to the ovary where it induces ovulation, resulting in the presence of eggs in the oviduct on the day of estrus.
The test compound is administered orally at predetermined times on the day of proestrus. The rat is sacrificed on the following day (estrus). The oviduct is removed and examined microscopically for the presence of ova.
In the Table, column 1 gives the name of the compound, column 2 the time of administration and column 3 the percent inhibition of ovulation.

[2] = system: estrous phase of the estrous cycle and ovulation; conditions: mice; cited from earlier work
[3] = system: estrous phase of the estrous cycle and ovulation; conditions: rats; cited from earlier work
ovulation [4] = conditions: in vivo; cited from earlier work
[5] = time of administration 10:00 a.m.

Structure (SMILES): COc1cc2c(CCNC(C)=O)c(C)[nH]c2c(Cl)c1Cl [2-methyl-6,7-dichloromelatonin]
- Percent Inhibition of ovulation (ovulation [1]; time of administration 8:00 a.m.): 100%

Structure (SMILES): COc1ccc2[nH]cc(CCNC(C)=O)c2c1 [melatonin, N-[2-(5-methoxy-3-indolyl)ethyl]acetamide]
- inhibition of estrous phase of the estrous cycle [2]: inhibited
- inhibition of ovulation [2]: inhibited
- inhibition of estrous phase of the estrous cycle [3]: inhibited
- inhibition of ovulation [3]: inhibited

Structure (SMILES): COc1cc2c(CCNC(C)=O)c[nH]c2c(Cl)c1Cl [6,7-dichloromelatonin, N-acetyl-5-methoxy-6,7-dichlorotryptamine]
- Percent Inhibition of ovulation (ovulation [1]; [5]): 100%

Structure (SMILES): COc1cc2c(CCNC(C)=O)c[nH]c2cc1Cl [6-chloromelatonin]
- ovulation blocking activity (ovulation [4]): increased ovulation blocking activity
- Percent Inhibition of ovulation (ovulation [1]; [5]): 0%

Structure (SMILES): COc1cc2c(CC(C)NC(C)=O)c[nH]c2cc1Cl (stereo not drawn) [α-methyl-6-chloromelatonin]
- effect of α-methyl substitution on ovulation-blocking activity (ovulation [4]): no significant effect

Structure (SMILES): COc1cc2c(CCNC(C)=O)c[nH]c2cc1F [6-fluoromelatonin]
- ovulation blocking activity (ovulation [4]): increased ovulation blocking activity
